What was measured:
[1] = system: antibodies to peptides 50.10 (EA-D) and 17.1 (EA-R) in sequential sera; test: IgG ELISA on sequential sera of a patient with acute infectious mononucleosis; assay type: binding, human; settings: sera at 1.20 dilution, (+) >0.25
Text: The early antigen D-R transition was followed in a patient during a course of acute infectious mononucleosis. Antibodies to peptides 50.10 (EA-D) and 17.1 (EA-R) were detected by ELISAs on specimens collected over a six month duration. […] Therefore, the peptides of the invention are useful for monitoring the course of EBV-associated disease in a patient.

[2] = system: EA reactive antibody (IgG) in infectious mononucleosis (IM) sera; test: ELISA, EA peptides with EBV infectious mononucleosis sera; assay type: binding, human; settings: for ELISA result, peptides with and without extensions: EA positive EBV IM acute serum; for O.D.: 420 nm
Procedure: ELISA. The ELISA for measuring specific antibodies to p17, p50 or to the synthetic peptides was performed as previously described in detail (Luka et al., J. Immunol. Methods, 67:145-156, 1984). Aliquots of different antigen concentrations were diluted in 0.5M Na2CO3 buffer, pH 9.5, added to wells in polystyrene microtiter plates (Linbro) and the plates incubated overnight at 4° C. Following this incubation period, the plates were washed 5× with Tris-HCl, pH 7.4, containing 0.05% Tween 20, 50 mM NaCl and 100 mg per liter albumin (Sigma) and dried for 20 minutes at room temperature. The plates were screened with different anti-EA-R or EA-D antibody positive human sera and the monoclonal antibody to p17 or p50 to identify the optimal concentration of antigen to be used in the serological studies. Alkaline-phosphatase-labelled goat anti-human IgG (Sigma) or goat anti-mouse IgG (Sigma) was used as the indicator system.
For the testing of human sera for antibodies to native p17, p50 or to the synthetic peptides, sera were diluted 1:10 in ELISA buffer, added in 0.1 ml volumes to wells coated with optimal concentrations of antigen and the plates were incubated for 60 minutes at room temperature. After 4 washes with ELISA buffer, 100 μl of alkaline phosphatase-labelled goat anti-human IgG in ELISA buffer were added to each well and the plates were incubated at room temperature for 1 hour. Following four more washes in buffer, the enzyme reaction was performed by dissolving 1 mg per ml of Sigma alkaline phosphatase substrate in 1M diethanolamine buffer, pH 10.4, containing 1 mM MgCl2 and 0.1 mM ZnCl2, and 100 μl of the mixture was then added to each well. The reaction was allowed to proceed for 30 minutes at 37° C. and then the plates were screened directly with a microplate reader, TITERTEK MULTISKAN MC (Flow), at 420 nm. Readings above 0.1 which was 2× the background noted with antibody-negative sera were considered positive reactions.
When the entire 50.10 peptide was tested with 1M sera, 24/32 or 75% of the sera contained EA-D reactive antibody (IgG) (Table 4).
Serological reactivity of EA peptides p17.1 and p50.1 which contained additional amino acids on their amino and carboxy termini was tested on EBV IM acute sera which was EA positive. The ELISA results shown in Table 5 indicate that the additional amino acids improved reactivity for both EA peptides.
Immunofluorescence assays (IFA) were performed as described by Henle, et al. (Int. J. Cancer, 8:272-282, 1971). Western blot analysis was done by methods commonly used in the art (See for example, Coligan, et al., Current Protocols in Immunology, Wiley Interscience, 1991, Unit 12). Samples of EBV-infected cell lysates (P3HR-1) were tested with human whole antiserum from positive humans (Pearson, et al., Virology, 160:151-161, 1987). A comparison was made between EA serology by IFA, using the EA-D 50.1 peptide antisera, and ELISA serology using 50.1 peptide (see Example 2).

[3] = 32 IM sera, values >0.5 positive (O.D. 420 nm)

ETFTETWNRFITHTE [p17.1, synthetic peptide from 17 Kd early antigen (EA-R) region of EBV]
IgG ELISA O.D. reading ([1]; serum no. 9817, May 26, 1988): 0.158
IgG ELISA O.D. reading ([1]; serum no. 9820, May 31, 1988): 0.106
IgG ELISA O.D. reading ([1]; serum no. 9829, Jun. 07, 1988): 0.135
IgG ELISA O.D. reading ([1]; serum no. 9941, Jun. 20, 1988): 0.169
IgG ELISA O.D. reading ([1]; serum no. 9983, Jun. 27, 1988): 0.645
IgG ELISA O.D. reading ([1]; serum no. 10064, Jul. 18, 1988): 0.842
IgG ELISA O.D. reading ([1]; serum no. 10237, Aug. 29, 1988): 0.260
IgG ELISA O.D. reading ([1]; serum no. 10271, Sep. 20, 1988): 0.231
IgG ELISA O.D. reading ([1]; serum no. 10488, Oct. 21, 1988): 0.217
IgG ELISA O.D. reading ([1]; serum no. 10546, Nov. 15, 1988): 0.193
% Positive [2, 3]: 38%
IM sera positive / tested [2, 3]: 12/32
ELISA result, peptides with and without extensions ([2]; sample no. 2241): 0.282
ELISA result, peptides with and without extensions ([2]; sample no. 12498): 0.637
ELISA result, peptides with and without extensions ([2]; sample no. 12836): 0.692
SCORE ([2]; IM serum sample no. 2241): − (Values >0.5 were considered positive (O.D. readings at 420 nm).)
SCORE ([2]; IM serum sample no. 11984): + (Values >0.5 were considered positive (O.D. readings at 420 nm).)
O.D. ([2]; IM serum sample no. 11984): 0.542
SCORE ([2]; IM serum sample no. 12005): + (Values >0.5 were considered positive (O.D. readings at 420 nm).)
O.D. ([2]; IM serum sample no. 12005): 0.981
SCORE ([2]; IM serum sample no. 12288): + (Values >0.5 were considered positive (O.D. readings at 420 nm).)
O.D. ([2]; IM serum sample no. 12288): 0.700
SCORE ([2]; IM serum sample no. 12407): + (Values >0.5 were considered positive (O.D. readings at 420 nm).)
O.D. ([2]; IM serum sample no. 12407): 0.787
SCORE ([2]; IM serum sample no. 12409): + (Values >0.5 were considered positive (O.D. readings at 420 nm).)
O.D. ([2]; IM serum sample no. 12409): 0.592
SCORE ([2]; IM serum sample no. 12418): − (Values >0.5 were considered positive (O.D. readings at 420 nm).)
O.D. ([2]; IM serum sample no. 12418): 0.463
SCORE ([2]; IM serum sample no. 12498): + (Values >0.5 were considered positive (O.D. readings at 420 nm).)
SCORE ([2]; IM serum sample no. 12502): + (Values >0.5 were considered positive (O.D. readings at 420 nm).)
O.D. ([2]; IM serum sample no. 12502): 0.924
SCORE ([2]; IM serum sample no. 12587): + (Values >0.5 were considered positive (O.D. readings at 420 nm).)
O.D. ([2]; IM serum sample no. 12587): 0.571
SCORE ([2]; IM serum sample no. 12600): − (Values >0.5 were considered positive (O.D. readings at 420 nm).)
SCORE ([2]; IM serum sample no. 12611): − (Values >0.5 were considered positive (O.D. readings at 420 nm).)
O.D. ([2]; IM serum sample no. 12611): 0.259
SCORE ([2]; IM serum sample no. 12801): + (Values >0.5 were considered positive (O.D. readings at 420 nm).)
O.D. ([2]; IM serum sample no. 12801): 0.601
SCORE ([2]; IM serum sample no. 12828): − (Values >0.5 were considered positive (O.D. readings at 420 nm).)
O.D. ([2]; IM serum sample no. 12828): 0.375
SCORE ([2]; IM serum sample no. 12829): − (Values >0.5 were considered positive (O.D. readings at 420 nm).)
O.D. ([2]; IM serum sample no. 12829): 0.257
SCORE ([2]; IM serum sample no. 12836): + (Values >0.5 were considered positive (O.D. readings at 420 nm).)
SCORE ([2]; IM serum sample no. 12837): + (Values >0.5 were considered positive (O.D. readings at 420 nm).)
O.D. ([2]; IM serum sample no. 12837): 0.523
SCORE ([2]; IM serum sample no. 12840): − (Values >0.5 were considered positive (O.D. readings at 420 nm).)
O.D. ([2]; IM serum sample no. 12840): 0.488
SCORE ([2]; IM serum sample no. 12888): − (Values >0.5 were considered positive (O.D. readings at 420 nm).)
O.D. ([2]; IM serum sample no. 12888): 0.423
SCORE ([2]; IM serum sample no. 12889): + (Values >0.5 were considered positive (O.D. readings at 420 nm).)
O.D. ([2]; IM serum sample no. 12889): 0.574
SCORE ([2]; IM serum sample no. 12892): − (Values >0.5 were considered positive (O.D. readings at 420 nm).)
O.D. ([2]; IM serum sample no. 12892): 0.430
SCORE ([2]; IM serum sample no. 12893): + (Values >0.5 were considered positive (O.D. readings at 420 nm).)
O.D. ([2]; IM serum sample no. 12893): 0.592
SCORE ([2]; IM serum sample no. 12899): + (Values >0.5 were considered positive (O.D. readings at 420 nm).)
O.D. ([2]; IM serum sample no. 12899): 0.825
SCORE ([2]; IM serum sample no. 12900): − (Values >0.5 were considered positive (O.D. readings at 420 nm).)
O.D. ([2]; IM serum sample no. 12900): 0.264
SCORE ([2]; IM serum sample no. 13075): − (Values >0.5 were considered positive (O.D. readings at 420 nm).)
O.D. ([2]; IM serum sample no. 13075): 0.154
SCORE ([2]; IM serum sample no. 13419): + (Values >0.5 were considered positive (O.D. readings at 420 nm).)
O.D. ([2]; IM serum sample no. 13419): 0.655
SCORE ([2]; IM serum sample no. 13637): + (Values >0.5 were considered positive (O.D. readings at 420 nm).)
O.D. ([2]; IM serum sample no. 13637): 0.719
SCORE ([2]; IM serum sample no. 13769): + (Values >0.5 were considered positive (O.D. readings at 420 nm).)
O.D. ([2]; IM serum sample no. 13769): 0.757
SCORE ([2]; IM serum sample no. 13929): − (Values >0.5 were considered positive (O.D. readings at 420 nm).)
O.D. ([2]; IM serum sample no. 13929): 0.332
SCORE ([2]; IM serum sample no. 14043): − (Values >0.5 were considered positive (O.D. readings at 420 nm).)
O.D. ([2]; IM serum sample no. 14043): 0.095
SCORE ([2]; IM serum sample no. 14128): − (Values >0.5 were considered positive (O.D. readings at 420 nm).)
O.D. ([2]; IM serum sample no. 14128): 0.434
SCORE ([2]; IM serum sample no. 14131): − (Values >0.5 were considered positive (O.D. readings at 420 nm).)
O.D. ([2]; IM serum sample no. 14131): 0.182
